Earlier results as cited in US7807404B2, “Mutated truncated mt-pfkA gene for the synthesis of active shorter fragment of 6-phosphofructo-1-kinase” (Kemijski Institut, priority 2006, dated 2010).

Assays:
PFK1 [1] = conditions: citrate 10 mM
[2] = tested on: PFK1 with 8 amino acid residues cleaved from the C-terminal part
PFK1 [3] = biological target: T1, PFK1 (Oryctolagus cuniculus, UniProt P00511)
T1 construct: the enzyme, isolated from the rabbit muscle; host or cells: rabbit muscle
T1 sequence (P00511 2-780 limits assumed): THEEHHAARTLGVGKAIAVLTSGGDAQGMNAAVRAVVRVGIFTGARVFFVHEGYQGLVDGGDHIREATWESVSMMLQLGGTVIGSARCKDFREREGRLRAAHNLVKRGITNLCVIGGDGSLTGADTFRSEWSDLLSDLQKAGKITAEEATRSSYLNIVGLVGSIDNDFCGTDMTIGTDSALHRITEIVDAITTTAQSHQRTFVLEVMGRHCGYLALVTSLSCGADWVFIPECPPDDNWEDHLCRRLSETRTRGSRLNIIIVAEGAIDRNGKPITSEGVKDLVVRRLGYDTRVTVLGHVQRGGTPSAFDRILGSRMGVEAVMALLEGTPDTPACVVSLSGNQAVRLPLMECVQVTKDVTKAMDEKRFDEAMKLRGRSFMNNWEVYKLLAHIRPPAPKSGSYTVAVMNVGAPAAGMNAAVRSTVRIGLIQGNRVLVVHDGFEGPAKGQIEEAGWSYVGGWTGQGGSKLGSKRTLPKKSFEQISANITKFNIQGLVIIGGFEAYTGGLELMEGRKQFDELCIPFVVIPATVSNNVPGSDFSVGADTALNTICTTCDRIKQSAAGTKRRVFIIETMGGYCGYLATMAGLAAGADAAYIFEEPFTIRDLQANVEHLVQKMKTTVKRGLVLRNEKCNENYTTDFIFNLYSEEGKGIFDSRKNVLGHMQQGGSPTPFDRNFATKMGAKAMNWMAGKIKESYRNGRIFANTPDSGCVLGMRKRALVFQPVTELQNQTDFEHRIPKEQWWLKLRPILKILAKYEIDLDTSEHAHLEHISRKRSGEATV

PFK1 [4] = biological target: T2, PFK1 (Aspergillus niger, UniProt P78985); conditions: citrate 10 mM
T2 construct: The PFK1 isolated from Aspergillus niger cells; host or cells: Aspergillus niger cells
T2 sequence (P78985 whole entry): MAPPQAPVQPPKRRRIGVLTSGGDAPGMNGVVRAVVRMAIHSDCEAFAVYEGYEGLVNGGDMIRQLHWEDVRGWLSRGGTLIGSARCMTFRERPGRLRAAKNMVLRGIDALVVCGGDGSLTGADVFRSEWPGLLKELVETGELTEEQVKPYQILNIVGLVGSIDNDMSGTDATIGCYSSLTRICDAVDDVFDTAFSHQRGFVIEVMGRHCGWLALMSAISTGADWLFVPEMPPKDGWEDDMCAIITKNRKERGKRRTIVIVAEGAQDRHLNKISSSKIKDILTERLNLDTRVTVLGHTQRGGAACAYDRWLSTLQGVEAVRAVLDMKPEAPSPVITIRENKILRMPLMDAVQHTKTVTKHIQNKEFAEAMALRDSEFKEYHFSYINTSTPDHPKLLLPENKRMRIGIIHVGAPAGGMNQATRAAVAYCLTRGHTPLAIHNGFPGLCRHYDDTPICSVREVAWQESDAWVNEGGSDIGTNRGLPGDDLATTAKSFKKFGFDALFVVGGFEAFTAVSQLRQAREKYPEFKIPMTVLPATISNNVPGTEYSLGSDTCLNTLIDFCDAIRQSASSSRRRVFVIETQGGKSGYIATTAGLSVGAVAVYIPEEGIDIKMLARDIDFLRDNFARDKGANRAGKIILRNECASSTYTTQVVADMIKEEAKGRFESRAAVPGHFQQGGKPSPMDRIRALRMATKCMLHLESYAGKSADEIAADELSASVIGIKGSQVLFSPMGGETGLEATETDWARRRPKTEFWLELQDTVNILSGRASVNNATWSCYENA

O=C(O)CC(O)(CC(=O)O)C(=O)O [citrate]
maximal velocity retained (PFK1 [1]): 20% | citrate concentration at which the enzyme lost its activity [2]: 10 mM | citrate concentration at which the enzyme was completely inactivated (PFK1 [3]): 2.5 mM | effect on catalytic activity (PFK1 [4]): almost prevented its catalytic activity
